Here are results for four compounds from paper PMC9962372, “Antiparasitic Meroterpenoids Isolated from Memnoniella dichroa CF-080171” (Pharmaceutics, 2023).

Some results are limits rather than exact numbers.

One data set has as its system P. falciparum 3D7. Nature of the data set: P. falciparum 3D7 lactate dehydrogenase whole parasite assay. Format: cell-based, Plasmodium falciparum.
Conditions: not given
Here is the method: The EC50 determinations of the isolated compounds were performed with 16-point dose-response curves. Each concentration was evaluated in triplicate (concentration range of 100–0.00305 µM) using the P. falciparum 3D7 lactate dehydrogenase whole parasite assay as previously described by Pérez-Moreno et al., 2016 [25]. The Plasmodium falciparum 3D7 strain is a clone of the NF54 strain, which was previously isolated from a patient. The parasites were maintained in O^+ human erythrocytes at 5% haematocrit and 0.1–8% parasitaemia, with incubation at 37 °C, 1% O2, 5% CO2, and 94% N2 in complete medium (10.4 g/L RPMI 1640, 150 μM hypoxanthine, 12.5 μg/mL gentamicin, 0.2% NaHCO3, 0.5% albuMAX II, 2% human O^+ serum). The […] (LDH) assay was performed in 384-well plates using late-ring/early trophozoite synchronized parasites at 2% hematocrit and 0.25% parasitaemia. Twenty-five microliters of (25 µL) parasite culture were incubated with 5 µL of the test compounds (parasite medium/100 nM chloroquine used as positive/negative growth controls) for 72 h, after which the plates were frozen for 4 h, thawed for 1 h at room temperature before adding 70 µL of freshly prepared LDH solution (1 U/mL diaphorase, 143 µM APAD, 143 mM sodium L-lactate, 178.75 µM NBT, 0.7% Tween 20, 100 mM Tris-HCL) at pH 8.0. Plates were briefly shaken and incubated for 10 min (in the dark), and absorbance was read at 650 nm in an Envision plate reader (Perkin Elmer, Waltham, MA, USA).
(§1) The EC50 of all the biological assays were computed with the Genedata Screener application (Genedata AG, Basel, Switzerland) using the equation below to calculate percentage inhibition: Percentage inhibition=[1−(Abswell−Absneg/Abspos−Absneg)]×100
(§2) Here, Abswell = absorbance/well, Abspos = average absorbance in positive control wells, and Absneg = average absorbance in negative wells.
On to `CC(=O)O[C@H]1CC[C@]2(C)[C@H]3Cc4c(O)cc5c(c4O[C@]3(C)CC[C@H]2C1(C)C)CN(CCO)C5=O` [Compound 3, 8-epi-memnobotrin B], for which the “fold lower potency against P. falciparum 3D7 in comparison to compound 1” value stood at 179 fold.

The same data set, now with this note: C3 ketone (1) versus C3 hydroxyl (2).
On to `CC1(C)C(=O)CC[C@]2(C)[C@H]3Cc4c(O)cc5c(c4O[C@]3(C)CC[C@@H]12)CN(CCO)C5=O` [Compound 1, Memnobotrin C], for which the “fold improvement of biological activity against P. falciparum 3D7 compared to compound 2” value came out at 5 fold.

Still in this data set, the particulars now being: Plasmodium falciparum, 3D7 / TULAHUEN, read-out: antiparasitic EC50 against both parasites (range).
Turning to `CC1(C)C(=O)CC[C@]2(C)[C@H]3Cc4c(O)cc5c(c4O[C@]3(C)CC[C@@H]12)CN(CCO)C5=O` [Compound 1, Memnobotrin C], the EC50 was in the range of 0.04 to 1.37 µM.

As for `CC1(C)[C@@H](O)CC[C@]2(C)[C@H]3Cc4c(O)cc5c(c4O[C@]3(C)CC[C@@H]12)CN(CCO)C5=O` [Compound 2, memnobotrin D], the EC50 lay within 0.04 to 1.37 µM.

Still in this data set, the particulars now being: Plasmodium falciparum, 3D7; 72 h, LDH readout, 16-point curves in triplicate; read-out: Antiparasitic EC50 P. falciparum 3D7.
`CC1(C)C(=O)CC[C@]2(C)[C@H]3Cc4c(O)cc5c(c4O[C@]3(C)CC[C@@H]12)CN(CCO)C5=O` [Compound 1, Memnobotrin C]: the EC50 turned out to be 0.04 ± 0.002 µM.

Take `CC1(C)[C@@H](O)CC[C@]2(C)[C@H]3Cc4c(O)cc5c(c4O[C@]3(C)CC[C@@H]12)CN(CCO)C5=O` [Compound 2, memnobotrin D]: the EC50 was determined as 0.201 ± 0.016 µM.

For the compound `CC(=O)O[C@H]1CC[C@]2(C)[C@H]3Cc4c(O)cc5c(c4O[C@]3(C)CC[C@H]2C1(C)C)CN(CCO)C5=O` [Compound 3, 8-epi-memnobotrin B], the EC50 stood at 7.17 ± 0.05 µM.

For `CC(=CCc1c(O)cc2c(c1O)C(=O)OC2)CCC=C(C)CCCC(C)(C)OC1OC(CO)C(O)C(O)C1O` (centres unmarked) [Compound 4], the EC50 came to 0.243 ± 0.023 µM.

The subject of the next data set is T. cruzi Tulahuen C4. Nature of the data set: Transgenic T. cruzi β-D-galactosidase assay in infected L6 cells. It is filed as cell-based, Trypanosoma cruzi.
Conditions: not given
Here is the method: as §1, §2
The EC50 determinations of the isolated compounds were performed with 16-point dose-response curves. Each concentration was evaluated in triplicate (concentration range of 50–0.00152 µM) in the transgenic T. cruzi β-D-galactosidase assay as previously described by Annang et al., 2014 [27]. The T. cruzi Tulahuen strain used is a genetically modified strain that expresses the Escherichia coli β-galactosidase gene, lacZ [28]. It was kindly supplied by Marcel Kaiser (Swiss Tropical and Public Health Institute). The parasites were generally maintained in a growth medium (RPMI 1640 supplemented with 10% inactivated fetal bovine serum (iFBS), 100 µg/mL streptomycin, 100 U/mL penicillin, 2 mM L-glutamine) at 37 °C, 5% CO2. For the assay, transgenic trypomastigote stage parasites were used to infect L6 rat skeletal muscle cells (host). Fifty-five microliters (55 µL) of the infected L6 cell culture were dispensed into 384-well assay plates (2 × 10^3 infected L6 cells/well) containing 5 µL of the test compounds (parasite medium/10 µgmL^−1 benznidazole were used as positive/negative growth controls) and incubated for 96 h at 37 °C, after which 15 µL of assay solution (100 µM CRPG and 0.1% NP40 made up in PBS) were added to each well, and plates were further incubated in the dark for 4 h at 37 °C. Absorbance in the wells was read at 585 nm in an Envision plate reader (Perkin Elmer, Waltham, MA, USA).
For `CC(=O)O[C@H]1CC[C@]2(C)[C@H]3Cc4c(O)cc5c(c4O[C@]3(C)CC[C@H]2C1(C)C)CN(CCO)C5=O` [Compound 3, 8-epi-memnobotrin B], the “fold lower potency against T. cruzi Tulahuen C4 in comparison to compound 1” value stood at 157 fold.

Staying with this data set, now noted: 96 h, infected L6 host cells, β-galactosidase readout; read-out: Antiparasitic EC50 T. cruzi Tulahuen C4.
Take `CC1(C)C(=O)CC[C@]2(C)[C@H]3Cc4c(O)cc5c(c4O[C@]3(C)CC[C@@H]12)CN(CCO)C5=O` [Compound 1, Memnobotrin C]: the EC50 was 0.266 ± 0.024 µM.

Staying with this data set, now noted: C3 ketone (1) versus C3 hydroxyl (2).
Regarding `CC1(C)C(=O)CC[C@]2(C)[C@H]3Cc4c(O)cc5c(c4O[C@]3(C)CC[C@@H]12)CN(CCO)C5=O` [Compound 1, Memnobotrin C], the “fold improvement of biological activity against T. cruzi Tulahuen C4 compared to compound 2” value is on record as 5 fold.

Still in this data set, the particulars now being: Trypanosoma cruzi, TULAHUEN, L6, 96 h, 96 h, infected L6 host cells, β-galactosidase readout; read-out: Antiparasitic EC50 T. cruzi Tulahuen C4.
`CC1(C)C(=O)CC[C@]2(C)[C@H]3Cc4c(O)cc5c(c4O[C@]3(C)CC[C@@H]12)CN(CCO)C5=O` [Compound 1, Memnobotrin C]: the EC50 is 0.226 µM.

On to `CC1(C)[C@@H](O)CC[C@]2(C)[C@H]3Cc4c(O)cc5c(c4O[C@]3(C)CC[C@@H]12)CN(CCO)C5=O` [Compound 2, memnobotrin D], for which the EC50 came to 1.37 ± 0.018 µM.

For the compound `CC(=O)O[C@H]1CC[C@]2(C)[C@H]3Cc4c(O)cc5c(c4O[C@]3(C)CC[C@H]2C1(C)C)CN(CCO)C5=O` [Compound 3, 8-epi-memnobotrin B], the EC50 came to 41.77 ± 0.01 µM.

As to `CC(=CCc1c(O)cc2c(c1O)C(=O)OC2)CCC=C(C)CCCC(C)(C)OC1OC(CO)C(O)C(O)C1O` (centres unmarked) [Compound 4], the EC50 came out at 0.934 ± 0.088 µM.

System in the next data set: not listed separately
Nature of the data set: MTT-based cytotoxicity assay in HepG2 cells. Format: cell-based. Particulars: human, Hep G2 liver carcinoma cells (ATCC HB-8065); 72 h, MTT; read-out: Cytotoxic EC50 Hep G2. Here is the method:
as §1, §2
(§3) The EC50 determinations of the isolated compounds were performed with 12-point dose-response curves. Each concentration was evaluated in triplicate (concentration range of 50–0.0244 µM) in an MTT-based assay performed in liver carcinoma Hep G2 HB-8065 ATCC (American Type Culture Collection) cells as previously described by Annang et al., 2020 [29]. Cells (96-well plates were used with seeding at 1 × 10^4 cells/well) were cultured in 200 µL MEM medium per well at 37 °C, 5% CO2 for 24 h, after which the spent media were replaced with 200 µL MEM medium and 1 μL of test compounds. DMSO (0.5%), 8 mM methyl methanesulfonate and doxorubicin were used as positive, negative, and standard drug controls, respectively. After 72 h incubation with the test compounds at 37 °C, 100 µL of 0.5 mg/mL MTT solution diluted in MEM without phenol red was added to each well, and plates were briefly shaken and further incubated for 3 h at 37 °C. The supernatant in each well was carefully discarded and replaced with 100 µL of DMSO, and plates were gently shaken (to solubilize the formazan formed) before reading the absorbance at 570 nm in a Victor2 plate reader (Perkin Elmer, USA).
(Formazan colour is commonly taken as a measure of viable cells.)
In the case of `CC1(C)C(=O)CC[C@]2(C)[C@H]3Cc4c(O)cc5c(c4O[C@]3(C)CC[C@@H]12)CN(CCO)C5=O` [Compound 1, Memnobotrin C], the EC50 at 72 h is 1.2 µM.

Turning to `CC1(C)[C@@H](O)CC[C@]2(C)[C@H]3Cc4c(O)cc5c(c4O[C@]3(C)CC[C@@H]12)CN(CCO)C5=O` [Compound 2, memnobotrin D], the EC50 at 72 h came to 4.53 µM.

In the case of `CC(=CCc1c(O)cc2c(c1O)C(=O)OC2)CCC=C(C)CCCC(C)(C)OC1OC(CO)C(O)C(O)C1O` (centres unmarked) [Compound 4], the EC50 at 72 h was determined as 4.84 µM.

Another data set concerns Hep G2 cells. Nature of the data set: MTT-based cytotoxicity assay in HepG2 cells. Conditions: Hep G2 EC50 versus P. falciparum 3D7 EC50. It is filed as cell-based. The protocol: as §1, §2, §3
In the case of `CC1(C)C(=O)CC[C@]2(C)[C@H]3Cc4c(O)cc5c(c4O[C@]3(C)CC[C@@H]12)CN(CCO)C5=O` [Compound 1, Memnobotrin C], the “Selectivity index (SI), Hep G2 in comparison to activity in P. falciparum 3D7” value (shortened to “Selectivity index (SI) … in P. falciparum 3D7”) was found to be 30.

Turning to `CC1(C)[C@@H](O)CC[C@]2(C)[C@H]3Cc4c(O)cc5c(c4O[C@]3(C)CC[C@@H]12)CN(CCO)C5=O` [Compound 2, memnobotrin D], the “Selectivity index (SI) … in P. falciparum 3D7” value came to 22.5.

In the case of `CC(=CCc1c(O)cc2c(c1O)C(=O)OC2)CCC=C(C)CCCC(C)(C)OC1OC(CO)C(O)C(O)C1O` (centres unmarked) [Compound 4], the “Selectivity index (SI) … in P. falciparum 3D7” value is listed as 19.9.

System in a further data set: not listed separately
Nature of the data set: Cytotoxicity assay (resazurin) in L6 rat skeletal muscle cells. Conditions: L6 rat skeletal muscle cells (ATCC CRL-1458), read-out: Cytotoxic EC50 L6. It is filed as cell-based. Here is the method: Seeding of the L6 cells was done in 96-well plates at 4 × 10^3 cells per well in 100 µL volume; they were then cultured for 24 h. Ten millimolar (10 mM) DMSO stocks of the compounds to be tested were used to prepare 16-point dose-response curves. Each concentration was evaluated in triplicate (using the cell culture medium as diluent) at a final volume of 300 µL (compound concentration range of 50–0.00152 µM and DMSO at 0.5 %). The spent growth medium from the 24 h-seeded cells was carefully replaced with 100 µL of the prepared working concentrations of the compounds to be tested and incubated for 72 h. The spent medium was again carefully replaced (without disturbing the layer of cells at the bottom of each well) with 100 µL fresh medium, after which 20 µL of 0.02% resazurin (previously diluted in 1X PBS) was added to the wells and incubated for 2 h in the dark at 37 °C. The plates were then shaken for 5 s, and fluorescence was read at 570–590 nm in a TECAN Infinite F200 fluorimeter.
Background: Resazurin is reduced to fluorescent resorufin, in cell work by metabolically active cells.
For `CC1(C)C(=O)CC[C@]2(C)[C@H]3Cc4c(O)cc5c(c4O[C@]3(C)CC[C@@H]12)CN(CCO)C5=O` [Compound 1, Memnobotrin C], the EC50 at 72 h is less than 0.098 µM.

For `CC1(C)[C@@H](O)CC[C@]2(C)[C@H]3Cc4c(O)cc5c(c4O[C@]3(C)CC[C@@H]12)CN(CCO)C5=O` [Compound 2, memnobotrin D], the EC50 at 72 h came out at 1.39 ± 0.04 µM.

As usually defined, the EC50 is the concentration that produces a half-maximal response.
